Test systems include Candida albicans; Staphylococcus aureus; Klebsiella pneumoniae; Escherichia coli; Bacillus cereus; Bacillus subtilis; Acinetobacter baumannii.
Common to all, as to assay: ≥ marks a high value that may be exact or a test limit, other limits are often not marked, values filed in µg/mL are converted to µM
Test [1] deals with Escherichia coli ATCC 25922.
Test [2] has as its system Staphylococcus aureus ATCC 25923.
The subject of test [3] is Staphylococcus aureus ATCC 29213.
The subject of test [4] is Acinetobacter baumannii ATCC 19606.
The subject of test [5] is Enterococcus faecalis ATCC 29212.
Test [6] concerns Pseudomonas aeruginosa ATCC 9027.
Test [7] has as its system Klebsiella pneumoniae ATCC 700603.

≈ marks a conversion by molar mass, not a printed value.

In the case of `CC[C@H](C)[C@H](NC(=O)[C@H](CC(N)=O)NC(=O)[C@H](CCCCN)NC(=O)[C@H](CC(C)C)NC(=O)[C@H](Cc1ccccc1)NC(=O)[C@@H](NC(=O)[C@H](CCCCN)NC(=O)[C@H](Cc1c[nH]c2ccccc12)NC(=O)[C@H](CO)NC(=O)[C@H](C)N)C(C)C)C(=O)NCC(=O)N[C@@H](CCCCN)C(=O)N[C@@H](C)C(=O)N[C@@H](C)C(=O)NCC(=O)N[C@@H](CCCCN)C(=O)N[C@@H](C)C(=O)N[C@H](C(=O)N[C@@H](CC(C)C)C(=O)N[C@@H](CC(N)=O)C(=O)N[C@@H](CO)C(=O)N[C@H](C(=O)N[C@H](C(=O)N[C@@H](CC(=O)O)C(=O)N[C@@H](CCSC)C(=O)N[C@H](C(=O)N[C@@H](CC(N)=O)C(=O)N[C@@H](CCC(N)=O)C(N)=O)C(C)C)[C@@H](C)O)C(C)C)C(C)C` [ASWKVFLKNIGKAAGKAVLNSVTDMVNQ], the MIC against Candida albicans came to 10.7 µM (≈ 32 µg/mL); in test [1], 2.68 µM (≈ 8.01 µg/mL); in the test with Staphylococcus aureus, 2.68 µM (≈ 8.01 µg/mL); in [2] it was 2.68 µM (≈ 8.01 µg/mL); in the test with Klebsiella pneumoniae it was 10.7 µM (≈ 32 µg/mL).
Consider `CC(C)C[C@H](NC(=O)[C@@H](NC(=O)[C@H](CCCN=C(N)N)NC(=O)[C@H](CO)NC(=O)[C@H](CC(C)C)NC(=O)[C@H](C)NC(=O)[C@H](CC(N)=O)NC(=O)CNC(=O)[C@H](CC(C)C)NC(=O)[C@H](C)NC(=O)CNC(=O)[C@H](CC(C)C)NC(=O)[C@@H](N)Cc1ccccc1)C(C)C)C(N)=O` [FLGALGNALSRVL], for which the MIC in [3] is 32 µM (≈ 42.5 µg/mL); in [4], over 64 µM; in [1], over 64 µM; in test [5], over 64 µM.
As for `CC(C)C[C@H](NC(=O)[C@H](CCCCN)NC(=O)[C@H](Cc1ccccc1)NC(=O)[C@@H](NC(=O)[C@@H](NC(=O)[C@H](CCCCN)NC(=O)[C@H](CC(C)C)NC(=O)[C@@H](N)Cc1ccccc1)C(C)C)C(C)C)C(=O)N[C@@H](C)C(=O)N[C@@H](CO)C(=O)N[C@@H](CCCCN)C(=O)N[C@H](C(=O)N[C@@H](Cc1ccccc1)C(=O)N1CCC[C@H]1C(=O)N[C@@H](C)C(=O)N[C@H](C(=O)N[C@@H](Cc1ccccc1)C(=O)NCC(=O)N[C@@H](CCCCN)C(=O)N[C@H](C(=O)O)C(C)C)C(C)C)C(C)C` [FLKVVFKLASKVFPAVFGKV], the MIC worked out at 14.4 µM (≈ 32 µg/mL) with Escherichia coli, 1.8 µM (≈ 4 µg/mL) with Staphylococcus aureus and 7.19 µM (≈ 16 µg/mL) against Bacillus cereus.
With `CC[C@H](C)[C@H](NC(=O)[C@@H](NC(=O)[C@H](Cc1cnc[nH]1)NC(=O)[C@@H]1CCCN1C(=O)[C@@H](NC(=O)[C@H](CC(C)C)NC(=O)[C@H](CO)NC(=O)[C@H](CC(C)C)NC(=O)[C@@H](N)Cc1ccccc1)[C@@H](C)CC)C(C)C)C(=O)N[C@@H](CO)C(=O)N[C@@H](C)C(=O)N[C@H](C(=O)N1CCC[C@H]1C(=O)N[C@@H](Cc1cnc[nH]1)C(=O)N[C@H](C(=O)N[C@H](C(=O)N[C@@H](CC(N)=O)C(=O)N[C@@H](C)C(=O)N[C@@H](CC(C)C)C(=O)N[C@@H](CO)C(=O)N[C@@H](CC(N)=O)C(=O)N[C@@H](CC(C)C)C(N)=O)C(C)C)C(C)C)[C@@H](C)CC` [FLSLIPHVISAIPHVVNALSNL], the MIC in the test with Candida albicans is over 218 µM; in test [1], over 218 µM; in test [2] it was over 218 µM; against Klebsiella pneumoniae it was over 189 µM.
On to `CC[C@H](C)[C@H](NC(=O)[C@H](CC(C)C)NC(=O)[C@H](C)NC(=O)[C@@H]1CCCN1C(=O)[C@H](CC(C)C)NC(=O)CN)C(=O)N[C@@H](CO)C(=O)N[C@@H](Cc1c[nH]c2ccccc12)C(=O)N[C@@H](CO)C(=O)N[C@@H](CCCCN)C(=O)N[C@@H](CCCN=C(N)N)C(=O)N[C@@H](CCCCN)C(=O)N[C@@H](CCCN=C(N)N)C(=O)N[C@@H](CCC(N)=O)C(=O)N[C@@H](CCC(N)=O)C(N)=O` [GLPALISWSKRKRQQ], for which the MIC was over 53.4 µM against Escherichia coli, 53.3 µM (≈ 94.1 µg/mL) against Staphylococcus aureus and at least 40 µM in the test with Bacillus subtilis.
On to `CC[C@H](C)[C@H](N)C(=O)N[C@@H](CC(N)=O)C(=O)N[C@@H](Cc1ccccc1)C(=O)N[C@@H](CC(C)C)C(=O)N[C@@H](CCCCN)C(=O)N[C@@H](CC(C)C)C(=O)NCC(=O)N[C@@H](CCCCN)C(=O)N[C@@H](CCCCN)C(=O)N[C@H](C(=O)N[C@@H](CC(C)C)C(=O)NCC(=O)N[C@@H](C)C(=O)N[C@@H](CC(C)C)C(N)=O)[C@@H](C)CC` [INFLKLGKKILGAL], for which the MIC against Escherichia coli was over 100 µM; against Bacillus subtilis, 22.5 µM (≈ 34.4 µg/mL).
As for `CC[C@H](C)[C@H](N)C(=O)N[C@@H](CC(N)=O)C(=O)N[C@@H](Cc1c[nH]c2ccccc12)C(=O)N[C@@H](CCCCN)C(=O)N[C@@H](CCCCN)C(=O)N[C@H](C(=O)N[C@@H](C)C(=O)N[C@@H](CO)C(=O)N[C@H](C(=O)NCC(=O)N[C@@H](CCCCN)C(=O)N[C@@H](CCC(=O)O)C(=O)N[C@H](C(=O)N[C@@H](CC(C)C)C(=O)N[C@@H](CCCCN)C(=O)N[C@@H](C)C(N)=O)C(C)C)[C@@H](C)CC)[C@@H](C)CC` [INWKKIASIGKEVLKA], the MIC in the test on Escherichia coli was 75 µM (≈ 135 µg/mL); with Bacillus subtilis it was at least 70 µM.
The matching figures for `CC[C@H](C)[C@H](N)C(=O)N[C@@H](CC(N)=O)C(=O)N[C@@H](Cc1c[nH]c2ccccc12)C(=O)N[C@@H](CC(C)C)C(=O)N[C@@H](CCCCN)C(=O)N[C@@H](CC(C)C)C(=O)NCC(=O)N[C@@H](CCCCN)C(=O)N[C@@H](CCCCN)C(=O)N[C@H](C(=O)N[C@@H](CC(C)C)C(=O)NCC(=O)N[C@@H](C)C(=O)N[C@H](C(N)=O)[C@@H](C)CC)[C@@H](C)CC` [INWLKLGKKILGAI]: 67.5 µM (≈ 106 µg/mL) and 25 µM (≈ 39.2 µg/mL).
The matching figures for `CC[C@H](C)[C@H](N)C(=O)N[C@@H](CC(N)=O)C(=O)N[C@@H](Cc1c[nH]c2ccccc12)C(=O)N[C@@H](CO)C(=O)N[C@@H](CO)C(=O)N[C@H](C(=O)N[C@@H](Cc1ccccc1)C(=O)N[C@@H](CCC(=O)O)C(=O)N[C@@H](CO)C(=O)N[C@H](C(=O)N[C@@H](CO)C(=O)N[C@@H](CC(N)=O)C(=O)N[C@@H](CC(C)C)C(=O)N[C@H](C(N)=O)C(C)C)C(C)C)[C@@H](C)CC` [INWSSIFESVSNLV]: over 100 µM and at least 100 µM.
Take `CC[C@H](C)[C@H](NC(=O)[C@H](Cc1ccc(O)cc1)NC(=O)[C@H](CCCCN)NC(=O)[C@H](CCCCN)NC(=O)[C@H](CC(C)C)NC(=O)[C@H](CC(C)C)NC(=O)[C@H](CCCCN)NC(=O)[C@H](CCCCN)NC(=O)[C@@H](NC(=O)[C@H](CC(C)C)NC(=O)[C@@H](N)CCCCN)C(C)C)C(=O)N[C@H](C(=O)N[C@@H](Cc1ccccc1)C(=O)O)[C@@H](C)O` [KLVKKLLKKYITF]: the MIC in test [6] is 4 µM (≈ 6.49 µg/mL); against Acinetobacter baumannii, at least 64 µM; in [7], over 64 µM; in test [1], over 64 µM; in [2], over 64 µM.
For `CC[C@H](C)[C@H](NC(=O)[C@H](CCCCN)NC(=O)[C@H](CCCCN)NC(=O)[C@H](Cc1c[nH]c2ccccc12)NC(=O)[C@@H](NC(=O)[C@@H](N)CC(N)=O)[C@@H](C)CC)C(=O)N[C@@H](Cc1ccccc1)C(=O)N[C@@H](CCC(=O)O)C(=O)N[C@@H](CCCCN)C(=O)N[C@H](C(=O)N[C@@H](CCCCN)C(=O)N[C@@H](CC(N)=O)C(=O)N[C@@H](CC(C)C)C(=O)N[C@H](C(N)=O)C(C)C)C(C)C` [NIWKKIFEKVKNLV], the MIC in the test with Escherichia coli was 25 µM (≈ 44 µg/mL); with Bacillus subtilis, 20 µM (≈ 35.2 µg/mL).
With `CC[C@H](C)[C@H](NC(=O)[C@H](CCCCN)NC(=O)[C@H](CS)NC(=O)[C@H](C)NC(=O)[C@@H](NC(=O)[C@H](Cc1ccccc1)NC(=O)CNC(=O)[C@H](CC(C)C)NC(=O)CNC(=O)[C@@H](NC(=O)[C@H](CCCN=C(N)N)NC(=O)CNC(=O)[C@H](CC(C)C)NC(=O)[C@H](CC(N)=O)NC(=O)[C@H](CCCCN)NC(=O)[C@H](CC(C)C)NC(=O)[C@@H](NC(=O)[C@H](CO)NC(=O)[C@H](CC(C)C)NC(=O)[C@H](CCSC)NC(=O)[C@@H](N)CO)C(C)C)C(C)C)C(C)C)C(=O)N[C@@H](CC(N)=O)C(=O)N[C@@H](CCCCN)C(=O)N[C@@H](CCC(N)=O)C(=O)N[C@@H](CS)C(=O)O` [SMLSVLKNLGRVGLGFVACKINKQC], the MIC in the test with Candida albicans was determined as 100 µM (≈ 268 µg/mL); in the test on Escherichia coli it was 20 µM (≈ 53.6 µg/mL); against Staphylococcus aureus, 100 µM (≈ 268 µg/mL).
For the compound `C[C@H](NC(=O)[C@@H]1CCCN1C(=O)[C@H](CCCN=C(N)N)NC(=O)[C@H](Cc1ccc(O)cc1)NC(=O)CNC(=O)[C@H](CC(N)=O)NC(=O)[C@@H](N)CO)C(=O)N[C@@H](Cc1ccc(O)cc1)C(=O)N[C@@H](CCCN=C(N)N)C(=O)N1CCC[C@H]1C(=O)N[C@@H](C)C(=O)N[C@@H](Cc1ccc(O)cc1)C(=O)N[C@@H](CCCN=C(N)N)C(=O)N1CCC[C@H]1C(=O)N[C@@H](CO)C(=O)N[C@@H](Cc1ccc(O)cc1)C(=O)N[C@@H](CCCN=C(N)N)C(=O)N1CCC[C@H]1C(N)=O` [SNGYRPAYRPAYRPSYRP], the MIC in test [3] is 32 µM (≈ 69.5 µg/mL); with Acinetobacter baumannii, at least 32 µM; in the test with Escherichia coli, over 32 µM; in test [4] it was over 32 µM; in test [1] it was 32 µM (≈ 69.5 µg/mL); with Staphylococcus aureus it was over 32 µM.
